Laboratory results taken from PMC3199867, “Targeting surface nucleolin with multivalent HB-19 and related Nucant pseudopeptides results in distinct inhibitory mechanisms depending on the malignant tumor cell type” (BMC Cancer, 2011).
pIC50: −log10 of the molar value.

Columns and labels:
T29 = assay: Cell growth / multiplication (viable cell number); assay type: cell-based, murine; conditions: for % Growth inhibition After 3 days: T29, N6 or N7 20 μM, viable cell number vs untreated control, mean of at least 2 independent experiments; for pIC50: T29 cells, 0-20 μM, number of viable cells at 3 days post-treatment, read-out: Cell number: IC50 72 hours post-passage; for multiplication index of cells at day 3 compared to day 0: T29 seeded at 150,000 cells/ml, 10 μM (hexavalent), triplicate, control 17.5-fold
Method: (§1) Human breast (MDA-MB-231, MDA-MB-435 [37]), prostate (LNCaP, from American Type Culture Collection, ATCC, Rockville, MD), and cervical (HeLa) epithelial cancer cells were grown in DMEM-glutamax medium (Gibco Invitrogen, Cergy-Pontoise, France) containing GlutaMAX™, 4.5 g/l glucose and supplemented with 10% heat-inactivated (56°C for 30 min) fetal bovine serum (FBS; Hyclone, Thermo Fisher Scientific, Inc). Human SW480 cells are derived from a grade 3-4 colon carcinoma, while the highly metastatic counterpart SW620 is established from the lymph node of a person. Both SW480 and SW620 cells (obtained from Francis Raul, IRCAD) are highly tumorigenic in nude mice. They were cultured in D-MEM, 10% FCS. The murine melanoma TIII cell line was obtained from Armelle Prévost-Blondel. Murine T29 lymphoma cells, obtained from Philippe Kastner (CNRS, Strasbourg), have been established from Ik^L/L tumors from mice carrying a hypomorphic mutation (Ik^L/L) in the Ikaros gene encoding a transcription factor that regulates lymphocyte differentiation, and acts also as a tumor suppressor in T lymphocytes. The T29 cells were cultured in RPMI medium containing 25 mM Hepes pH 7.6, 1 mM sodium pyruvate, and 10% FCS. Human leukemia cell lines, Jurkat (acute T cell leukemia), HuT 78 (cutaneous T lymphocyte), RAJI (Burkitt lymphoma), and HL60 (promyelocytic leukemia) were cultured in RPMI-1640 medium (Gibco) containing GlutaMAX™, and supplemented with 10% heat-inactivated FBS as described before. The wild-type Chinese hamster ovary cell line (CHO K1) was purchased from American Type Culture Collection (ATCC; Rockville, MD). The CHO LRP1-null cell line (CHO-13-5-1) was kindly provided by D. Strickland [47]. They were cultured in Ham's F12K medium. All cells were cultured with 10% (v/v) heat inactivated (56°C, 30 min) fetal bovine serum (FBS) (Roche Molecular Biochemicals, Indianapolis, IN) and 50 international units/mL penicillin-streptomycin (Invitrogen). Cell death was monitored conveniently by uptake of the trypan blue dye due to plasma membrane permeability of dying and/or dead cells.
Figure 7 HB-19 and related multivalent Nucant pseudopeptides induce cell death associated with internucleosomal DNA fragmentation. A. Inhibition of cell multiplication by HB-19 and related multivalent Nucant pseudopeptides. […] Cell cultures (in triplicate) were monitored for viable cell number daily for 3 days. The histograms show the mean number of cells/ml ± SD of triplicate samples. The multiplication index of cells at day 3 compared to day 0 (the day of seeding) is given at the top of histogram. At 3 days post passage of T29 cells, the cell multiplication index of cells is 17.5-fold compared to 8.9-, 7.2-, 2.2-, and 1.7-fold in the presence of treatment with HB-19, N3, N6, and N7, respectively. B. N7 inhibits T29 cell multiplication in a dose dependent manner. T29 cells seeded at 100,000/ml in 2 ml in the absence (0 μM) or presence of N7 at various concentrations 2.5, 5, 10 and 20 μM were cultured for 3 days and the number of viable cells was determined at day 1, 2, and 3 post-seeding. The ordinate gives the cell number/ml (the mean of 2 samples) in each culture at day 1, 2, and 3 post-seeding. C. Partial cleavage of surface/cytoplasmic nucleolin. T29 cells were cultured for 45 min with 0 (for control; lanes C), 2 and 10 μM of N6 before preparation of cytoplasmic (that contains both surface and cytoplasmic nucleolin) and nuclear extract and analysis by immunoblotting using rabbit polyclonal antibodies that are directed against the first 26 (panel anti-Nt Ab) and the last 16 amino acids (panel anti-Ct Ab) of human nucleolin, respectively. The nuclear extracts were analyzed by immunoblotting using anti-Nt Ab (Methods). […]

HuT 78 = assay: Cell death (trypan blue uptake); assay type: cell-based, human; conditions: HuT 78, freshly passaged; N6 or N7 20 μM; trypan blue uptake; mean of at least 2 independent experiments
Method: as §1, with “cells. […]” for “cells.”

Substance	% Growth inhibition After 3 days (T29) [%]	pIC50 (T29)	multiplication index of cells at day 3 compared to day 0 (T29) [fold]	% Cell death After 24 hours (HuT 78) [%]
Ac-KAKPGKAKPGKAKPG-NH2 [Nucant N7, Presents hexavalently the pseudo-tripeptide Lysψ(CH2N)-Pro-Arg coupled to a similar template as in HB-19]	85	5.10	1.7	44
Ac-Lys-Aib-Gly-Lys-Aib-Gly-Lys-Aib-Gly-Lys-Aib-Gly-Lys-Aib-Gly-Lys-Aib-Gly-CONH2 [Nucant N6, Presents hexavalently the pseudo-tripeptide Lysψ(CH2N)-Pro-Arg coupled to the polypeptide template containing Aib]	85	5.10	2.2	44
